Assay results: patent publication US20050239774A1 (priority 2002, published 2005)
pKd: −log10 of the molar value.

Biological target: α7 nAChR subtype (Rattus norvegicus, UniProt Q05941)
Format: binding
Conditions: read-out: KD of the radioligand (saturation curve, one site model)

Chain of α7 nAChR subtype (Q05941 23-502 limits assumed): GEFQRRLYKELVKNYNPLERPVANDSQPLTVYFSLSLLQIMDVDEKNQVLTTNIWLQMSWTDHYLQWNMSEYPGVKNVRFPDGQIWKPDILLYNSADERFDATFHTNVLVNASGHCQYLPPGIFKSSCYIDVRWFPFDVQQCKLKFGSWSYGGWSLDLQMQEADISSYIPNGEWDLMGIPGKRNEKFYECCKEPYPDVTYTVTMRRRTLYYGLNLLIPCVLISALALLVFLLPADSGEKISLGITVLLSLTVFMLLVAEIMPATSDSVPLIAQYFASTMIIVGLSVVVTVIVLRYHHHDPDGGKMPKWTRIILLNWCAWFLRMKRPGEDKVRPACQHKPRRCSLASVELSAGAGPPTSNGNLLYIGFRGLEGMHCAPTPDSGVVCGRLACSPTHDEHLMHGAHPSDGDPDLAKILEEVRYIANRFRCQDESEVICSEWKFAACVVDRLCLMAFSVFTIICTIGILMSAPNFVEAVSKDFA

^125I-α-Bungarotoxin [^125I-α-BTX]
pKd: 8.78
